The record followed here is patent publication US20230416330A1, “Optimized GIP Peptide Analogues” (Antag Therapeutics ApS, priority 2019, published 2023).

Non-standard residues stand in square brackets, D forms with d. Residues, ends and D or L forms follow the SMILES beside them. *: point of attachment. C16 diacid = O=C(O)CCCCCCCCCCCCCCC(=O)*; Nle = CCCC[C@H](N)C(=O)O; Aib = CC(C)(N)C(=O)O

A short description of data set [1]: Solubility by visual inspection of peptide solutions. The format is physicochemical. Conditions: 1 mg/ml. The method in brief: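 Solubility scored by eye: clear, colorless appearance after gentle mixing. Samples prepared at 1, 5, 7.5 or 15 mg/ml in either pH 7.4 water (NaOH-adjusted) or 50 mM sodium phosphate buffer, pH 7.4.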
Data set [2] is described as follows: Physical stability: fibril formation in Thioflavin T (ThT) assay with agitation. The format is physicochemical. The note with it: 25° C., agitation. The method in brief:
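Read-out is continuous ThT fluorescence at 486 nm, with lag time taken where signal reaches 10% between pre- and post-transition baselines. Filtered samples (1, 5, 7.5 or 15 mg/ml; pH 7.4 phosphate buffer or NaOH-adjusted water) were stressed at 25° C. by orbital rotation at 300 rpm with one silica bead per well.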

The target of a further data set is T1, human GIP receptor (Homo sapiens, UniProt P48546).
T1 construct: host or cells: HEK-293 cells, transient transfection (Lipofectamine 2000), cDNA in pCMV-Script vector
T1 sequence (P48546 22-466): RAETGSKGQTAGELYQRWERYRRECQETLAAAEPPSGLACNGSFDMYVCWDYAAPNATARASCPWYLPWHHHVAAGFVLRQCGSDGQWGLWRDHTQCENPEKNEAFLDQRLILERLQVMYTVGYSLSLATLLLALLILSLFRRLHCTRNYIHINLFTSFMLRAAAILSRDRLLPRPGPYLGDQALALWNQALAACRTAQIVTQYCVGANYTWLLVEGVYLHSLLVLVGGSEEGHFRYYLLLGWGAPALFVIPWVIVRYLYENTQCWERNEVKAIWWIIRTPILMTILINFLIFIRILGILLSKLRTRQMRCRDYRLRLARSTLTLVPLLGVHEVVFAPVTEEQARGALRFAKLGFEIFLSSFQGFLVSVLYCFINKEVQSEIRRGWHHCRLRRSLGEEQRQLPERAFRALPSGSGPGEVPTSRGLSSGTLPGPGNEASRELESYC
In words: cAMP assay Alternative 1 (CisBio assay), GIPR antagonism. Conditions: for cAMP antagonism % inhib: % inhibition of Emax. The format is cell-based. The method in brief:
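HEK293 cells transiently transfected with hGIPR, compounds diluted in HBSS/HEPES/pluronic/casein with 500 uM IBMX; decrease in intracellular cAMP read by HTRF (665/620 nm) and converted via cAMP standard curve. pIC50 from four-parameter fit; agonism tested separately after 30 min at 37° C.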
On the technique in general: Cyclic AMP is a second messenger, typically raised through Gs and lowered through Gi signalling.

`CC[C@H](C)[C@H](NC(=O)[C@H](CO)NC(=O)[C@H](Cc1ccc(O)cc1)NC(=O)[C@H](CC(=O)O)NC(=O)[C@H](CO)NC(=O)[C@@H](NC(=O)[C@H](Cc1ccccc1)NC(=O)[C@@H](NC(=O)CNC(=O)[C@@H](N)CCC(=O)O)[C@@H](C)O)[C@@H](C)CC)C(=O)N[C@@H](C)C(=O)N[C@@H](CC(C)C)C(=O)N[C@@H](CC(=O)O)C(=O)N[C@@H](CCCCN)C(=O)N[C@H](C(=O)N[C@@H](CCCCNC(=O)CCCCCCCCCCCCCCC(=O)O)C(=O)N[C@@H](CCC(N)=O)C(=O)N[C@@H](CCC(N)=O)C(=O)N[C@@H](CC(=O)O)C(=O)N[C@@H](Cc1ccccc1)C(=O)N[C@H](C(=O)N[C@@H](CCC(=O)O)C(=O)N[C@@H](Cc1c[nH]c2ccccc12)C(=O)N[C@@H](CC(C)C)C(=O)N[C@@H](CC(C)C)C(=O)N[C@@H](C)C(=O)N[C@@H](CCC(N)=O)C(=O)N[C@@H](CCCCN)C(=O)N1CCC[C@H]1C(=O)N[C@@H](CO)C(=O)N[C@@H](CO)C(=O)NCC(=O)N[C@@H](C)C(=O)N1CCC[C@H]1C(=O)N1CCC[C@H]1C(=O)N1CCC[C@H]1C(=O)N[C@@H](CO)C(=O)O)C(C)C)[C@@H](C)CC` [AT668] (H-EGTFISDYSIALDKIK(C16 diacid)QQDFVEWLLAQKPSSGAPPPS-OH; N-terminus assumed): the Visual appearance entry in data set [1] (TFA, Phosphate (7.4)) is given as “Clear”. Moreover, in data set [2] (1 mg/ml, TFA, Phosphate (7.4)), the “Avr lag time (h)” value is “fnd (Fnd = fibrils not detected within experiment time (96 hours) with agitation.)”. At human GIP receptor (Table 2B), the “cAMP antagonism % inhib” value turned out to be 92%.
As to `CCCC[C@H](NC(=O)C(C)(C)NC(=O)[C@@H](NC(=O)[C@H](CO)NC(=O)[C@H](Cc1ccc(O)cc1)NC(=O)[C@H](CCC(=O)O)NC(=O)[C@H](CO)NC(=O)[C@@H](NC(=O)[C@H](Cc1ccccc1)NC(=O)[C@@H](NC(=O)CNC(=O)[C@@H](N)CCC(=O)O)[C@@H](C)O)[C@@H](C)CC)[C@@H](C)CC)C(=O)N[C@@H](CCC(=O)O)C(=O)N[C@@H](CCCCN)C(=O)N[C@H](C(=O)N[C@@H](CCCCNC(=O)CCCCCCCCCCCCCCC(=O)O)C(=O)N[C@@H](CCC(N)=O)C(=O)N[C@@H](CCC(N)=O)C(=O)N[C@@H](CCC(=O)O)C(=O)N[C@@H](Cc1ccccc1)C(=O)N[C@H](C(=O)N[C@@H](CCC(=O)O)C(=O)N[C@@H](Cc1c[nH]c2ccccc12)C(=O)N[C@@H](CC(C)C)C(=O)N[C@@H](CC(C)C)C(=O)N[C@@H](C)C(=O)N[C@@H](CCC(N)=O)C(=O)N[C@@H](CCCCN)C(=O)N1CCC[C@H]1C(=O)N[C@@H](CO)C(=O)N[C@@H](CO)C(=O)NCC(=O)N[C@@H](C)C(=O)N1CCC[C@H]1C(=O)N1CCC[C@H]1C(=O)N1CCC[C@H]1C(=O)N[C@@H](CO)C(=O)O)C(C)C)[C@@H](C)CC` [AT674] (H-EGTFISEYSI[Aib][Nle]EKIK(C16 diacid)QQEFVEWLLAQKPSSGAPPPS-OH; N-terminus assumed), in data set [1] (TFA, Phosphate (7.4)), the Visual appearance result is “Clear”. For the same compound, the “Avr lag time (h)” value in data set [2] (1 mg/ml, TFA, Phosphate (7.4)) is “fnd (Fnd = fibrils not detected within experiment time (96 hours) with agitation.)”. The “cAMP antagonism % inhib” value at human GIP receptor (Table 2B) was 93%. Moreover, the IC50 at human GIP receptor (Table 2B, HEK-293 cells transiently expressing hGIPR, agonist GIP1-42 at EC50, read-out: cAMP antagonism) was 0.447 nM.
On to `CC[C@H](C)[C@H](NC(=O)[C@H](CO)NC(=O)[C@H](Cc1ccc(O)cc1)NC(=O)[C@H](CC(=O)O)NC(=O)[C@H](CO)NC(=O)[C@@H](NC(=O)[C@H](Cc1ccccc1)NC(=O)[C@@H](NC(=O)CNC(=O)[C@@H](N)CCC(=O)O)[C@@H](C)O)[C@@H](C)CC)C(=O)N[C@@H](C)C(=O)N[C@@H](CCSC)C(=O)N[C@@H](CC(=O)O)C(=O)N[C@@H](CCCCN)C(=O)N[C@H](C(=O)N[C@@H](CCCCNC(=O)CCCCCCCCCCCCCCC(=O)O)C(=O)N[C@@H](CCC(N)=O)C(=O)N[C@@H](CCC(N)=O)C(=O)N[C@@H](CC(=O)O)C(=O)N[C@@H](Cc1ccccc1)C(=O)N[C@H](C(=O)N[C@@H](CC(N)=O)C(=O)N[C@@H](Cc1c[nH]c2ccccc12)C(=O)N[C@@H](CC(C)C)C(=O)N[C@@H](CC(C)C)C(=O)N[C@@H](C)C(=O)N[C@@H](CCC(N)=O)C(=O)N[C@@H](CCCCN)C(N)=O)C(C)C)[C@@H](C)CC` [AT158, reference compound] (H-EGTFISDYSIAMDKIK(C16 diacid)QQDFVNWLLAQK-NH2; N-terminus assumed), for which the Visual appearance result in data set [1] (CI, MilliQ (7.9)) is “Turbid and Hazy”. Besides, the “Avr lag time” value in data set [2] (1 mg/ml, TFA, Phosphate (7.4)) is listed as less than 18 h; in data set [2] (5 mg/ml, TFA, MilliQ) it was less than 18 h. On human GIP receptor (Table 2A, HEK-293 cells transiently expressing hGIPR, agonist GIP1-42 at EC50), the “cAMP antagonism pIC50” value was found to be 7.8.
As for `CC[C@H](C)[C@H](NC(=O)[C@H](CCCCN)NC(=O)[C@H](CC(=O)O)NC(=O)[C@H](CC(C)C)NC(=O)C(C)(C)NC(=O)[C@@H](NC(=O)[C@H](CO)NC(=O)[C@H](Cc1ccc(O)cc1)NC(=O)[C@H](CC(=O)O)NC(=O)[C@H](CO)NC(=O)[C@@H](NC(=O)[C@H](Cc1ccccc1)NC(=O)[C@@H](NC(=O)CNC(=O)[C@@H](N)CCC(=O)O)[C@@H](C)O)[C@@H](C)CC)[C@@H](C)CC)C(=O)N[C@@H](CCCCNC(=O)CCCCCCCCCCCCCCC(=O)O)C(=O)N[C@@H](CCC(N)=O)C(=O)N[C@@H](CCC(N)=O)C(=O)N[C@@H](CC(=O)O)C(=O)N[C@@H](Cc1ccccc1)C(=O)N[C@H](C(=O)N[C@@H](CCC(=O)O)C(=O)N[C@@H](Cc1c[nH]c2ccccc12)C(=O)N[C@@H](CC(C)C)C(=O)N[C@@H](CC(C)C)C(=O)N[C@@H](C)C(=O)N[C@@H](CCC(N)=O)C(=O)N[C@@H](CCCCN)C(=O)N1CCC[C@H]1C(=O)N[C@@H](CO)C(=O)N[C@@H](CO)C(=O)NCC(=O)N[C@@H](C)C(=O)N1CCC[C@H]1C(=O)N1CCC[C@H]1C(=O)N1CCC[C@H]1C(=O)N[C@@H](CO)C(=O)O)C(C)C` [AT666] (H-EGTFISDYSI[Aib]LDKIK(C16 diacid)QQDFVEWLLAQKPSSGAPPPS-OH; N-terminus assumed), the Visual appearance result in data set [1] (TFA, Phosphate (7.4)) was “Clear”. Also, the “Avr lag time (h)” value in data set [2] (1 mg/ml, TFA, Phosphate (7.4)) is recorded as “fnd (Fnd = fibrils not detected within experiment time (96 hours) with agitation.)”. The “cAMP antagonism % inhib” value at human GIP receptor (Table 2B) amounted to 89%.
Consider `CC[C@H](C)[C@H](NC(=O)[C@H](CCCCN)NC(=O)[C@H](CCC(=O)O)NC(=O)[C@H](CCSC)NC(=O)C(C)(C)NC(=O)[C@@H](NC(=O)[C@H](CO)NC(=O)[C@H](Cc1ccc(O)cc1)NC(=O)[C@H](CCC(=O)O)NC(=O)[C@H](CO)NC(=O)[C@@H](NC(=O)[C@H](Cc1ccccc1)NC(=O)[C@@H](NC(=O)CNC(=O)[C@@H](N)CCC(=O)O)[C@@H](C)O)[C@@H](C)CC)[C@@H](C)CC)C(=O)N[C@@H](CCCCNC(=O)CCCCCCCCCCCCCCC(=O)O)C(=O)N[C@@H](CCC(N)=O)C(=O)N[C@@H](CCC(N)=O)C(=O)N[C@@H](CC(=O)O)C(=O)N[C@@H](Cc1ccccc1)C(=O)N[C@H](C(=O)N[C@@H](CCC(=O)O)C(=O)N[C@@H](Cc1c[nH]c2ccccc12)C(=O)N[C@@H](CC(C)C)C(=O)N[C@@H](CC(C)C)C(=O)N[C@@H](C)C(=O)N[C@@H](CCC(N)=O)C(=O)N[C@@H](CCCCN)C(=O)N1CCC[C@H]1C(=O)N[C@@H](CO)C(=O)N[C@@H](CO)C(=O)NCC(=O)N[C@@H](C)C(=O)N1CCC[C@H]1C(=O)N1CCC[C@H]1C(=O)N1CCC[C@H]1C(=O)N[C@@H](CO)C(=O)O)C(C)C` [AT616] (H-EGTFISEYSI[Aib]MEKIK(C16 diacid)QQDFVEWLLAQKPSSGAPPPS-OH; N-terminus assumed), for which the Visual appearance result in data set [1] (Na, MilliQ (7.7)) was “Clear”. Besides, in data set [2] (1 mg/ml, Na, MilliQ (7.7)), the “Avr lag time (h)” value was “fnd (Fnd = fibrils not detected within experiment time (96 hours) with agitation.)”. The “cAMP antagonism % inhib” value on human GIP receptor (Table 2B) amounted to 100%.
